# According to ChEMBL document CHEMBL4043226, “Design, synthesis and biological evaluation of benzamide and phenyltetrazole derivatives with amide and urea linkers as BCRP inhibitors” (Bioorg Med Chem Lett, 2017):
# pIC50: −log10 of the molar value.
# Tests used:
# NCI-H460 = test: Cytotoxicity against human H460 cells after 72 hrs by MTT assay; type: cell-based; details: NCI-H460, 72 h
# [1] = Inhibition of ABCG2 in human H460/MX20 cells assessed as potentiation of mitoxantrone induced antiproliferative activity by measuring mitoxantrone IC50 at 3 uM preincubated for 2 hrs followed by mitoxantrone addition measured after 72 hrs by MTT assay (reference value: 6.161 +/- 0.172 microM)
# [2] = Inhibition of ABCG2 in human H460/MX20 cells assessed as potentiation of mitoxantrone induced antiproliferative activity by measuring mitoxantrone IC50 at 10 uM preincubated for 2 hrs followed by mitoxantrone addition measured after 72 hrs by MTT assay (reference value: 6.161 +/- 0.172 microM)
# [3] = Resistance index, ratio of mitoxantrone IC50 for human H460/MX20 cells to mitoxantrone IC50 for human H460 cells at 10 uM (reference value: 28.66)
# [4] = Cytotoxicity against human NCI-H460/MX20 cells after 72 hrs by MTT assay; type: cell-based; details: NCI-H460/MX20, 72 h
# [5] = Resistance index, ratio of mitoxantrone IC50 for human H460/MX20 cells to mitoxantrone IC50 for human H460 cells at 3 uM (reference value: 28.66)
# [6] = Resistance index, ratio of mitoxantrone IC50 for human H460/MX20 cells to mitoxantrone IC50 for human H460 cells at 1 uM (reference value: 28.66)
# [7] = target: T1, Broad substrate specificity ATP-binding cassette transporter ABCG2 (Homo sapiens, UniProt Q9UNQ0); test: Inhibition of ABCG2 (unknown origin) expressed in high five insect cell membrane vesicles assessed as reduction in BCRP ATPase activity preincubated for 3 mins followed by ATP addition measured for 20 mins
# T1 sequence (Q9UNQ0 whole entry): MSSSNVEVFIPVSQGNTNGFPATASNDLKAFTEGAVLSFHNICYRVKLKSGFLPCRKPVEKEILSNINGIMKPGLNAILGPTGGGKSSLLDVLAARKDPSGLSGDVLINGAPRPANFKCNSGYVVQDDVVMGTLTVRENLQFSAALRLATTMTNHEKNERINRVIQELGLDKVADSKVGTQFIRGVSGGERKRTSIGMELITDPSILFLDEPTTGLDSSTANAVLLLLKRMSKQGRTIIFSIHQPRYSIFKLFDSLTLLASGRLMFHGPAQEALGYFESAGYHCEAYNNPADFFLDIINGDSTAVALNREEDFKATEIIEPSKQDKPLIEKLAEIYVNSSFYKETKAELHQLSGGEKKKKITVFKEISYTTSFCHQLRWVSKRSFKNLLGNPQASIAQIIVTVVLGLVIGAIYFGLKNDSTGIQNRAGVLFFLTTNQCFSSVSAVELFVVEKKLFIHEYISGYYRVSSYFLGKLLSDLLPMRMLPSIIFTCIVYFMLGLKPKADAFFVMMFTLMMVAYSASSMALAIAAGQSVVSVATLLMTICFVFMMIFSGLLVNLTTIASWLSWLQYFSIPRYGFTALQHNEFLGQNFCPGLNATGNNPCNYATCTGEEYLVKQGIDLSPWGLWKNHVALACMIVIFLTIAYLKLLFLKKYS
# ABCG2 (BCRP) = target: T2, ABCG2 (BCRP) (Homo sapiens, UniProt Q9UNQ0); test: Activation of ABCG2 (unknown origin) expressed in high five insect cell membrane vesicles assessed as induction of basal BCRP ATPase activity at 10 uM preincubated for 3 mins followed by ATP addition measured for 20 mins relative to control; details: High Five insect cell membrane vesicles expressing ABCG2, read-out: FC
# T2 sequence (Q9UNQ0 whole entry): T1 sequence (Q9UNQ0 whole entry)
# [8] = Inhibition of ABCG2 in human H460/MX20 cells assessed as potentiation of mitoxantrone induced antiproliferative activity by measuring mitoxantrone IC50 at 1 uM preincubated for 2 hrs followed by mitoxantrone addition measured after 72 hrs by MTT assay (reference value: 6.161 +/- 0.172 microM)
# [9] = target: T1, Broad substrate specificity ATP-binding cassette transporter ABCG2; test: Inhibition of ABCG2 (unknown origin) expressed in high five insect cell membrane vesicles assessed as reduction in BCRP ATPase activity up to 3 uM preincubated for 3 mins followed by ATP addition measured for 20 mins
# [10] = target: T1, Broad substrate specificity ATP-binding cassette transporter ABCG2; test: Inhibition of ABCG2 (unknown origin) expressed in high five insect cell membrane vesicles assessed as reduction in BCRP ATPase activity at 3 to 30 uM preincubated for 3 mins followed by ATP addition measured for 20 mins
# [11] = target: T1, Broad substrate specificity ATP-binding cassette transporter ABCG2; test: Inhibition of ABCG2 (unknown origin) expressed in high five insect cell membrane vesicles assessed as reduction in basal BCRP ATPase activity up to 30 uM preincubated for 3 mins followed by ATP addition measured for 20 mins relative to control
# [12] = target: T1, Broad substrate specificity ATP-binding cassette transporter ABCG2; test: Inhibition of BCRP (unknown origin) expressed in MCF-7 MX cells assessed as reduction in Hoechst 33342 accumulation preincubated for 30 mins followed by Hoechst 33342 addition measured every 60 secs up to 120 mins by fluorescence assay; type: cell-based
inhibition (INH) [7],"fold induction at 20 min, 10 µM (ABCG2 (BCRP))",inhibition (INH) [9],inhibition (INH) [10],fold change (FC) [11],pIC50 [12],SMILES,pIC50 (NCI-H460),IC50 [1] [µM],IC50 [2] [µM],Ratio IC50 [3],pIC50 [4],Ratio IC50 [5],Ratio IC50 [6],IC50 [8] [µM]
,,,,,,COc1ccc(NC(=O)Nc2ccccc2-c2nnn(-c3ccc(OC)cc3)n2)cc1,4.28,0.382,0.355,1.56,4.24,1.78,2.06,
Dose-dependent effect,3.55,,,,,CCCc1ccc(NC(=O)c2ccccc2NC(=O)Nc2cccc([N+](=O)[O-])c2)cc1,< 4.00,,0.348,1.62,< 4.00,2.33,3.03,
Dose-dependent effect,1.94,,,,,COc1cccc(-n2nnc(-c3ccccc3NC(=O)Nc3ccc([N+](=O)[O-])cc3)n2)c1,< 4.00,,,1.87,< 4.00,2.53,3.87,0.832
,,,,,,COc1cccc(-n2nnc(-c3ccccc3NC(=O)Nc3ccccc3[N+](=O)[O-])n2)c1,< 4.00,,,4.1,< 4.00,4.55,5.45,1.172
,,,,,,COc1cccc(-n2nnc(-c3ccccc3NC(=O)c3cccc([N+](=O)[O-])c3)n2)c1,4.70,1.39,,4.03,4.59,6.47,8.38,
,1.47,Not Active,Active,,,CCCc1ccc(NC(=O)c2ccccc2NC(=O)Nc2ccc([N+](=O)[O-])cc2)cc1,< 4.00,,0.325,1.51,< 4.00,2.24,2.89,
,,,,,,COc1cccc(-n2nnc(-c3ccccc3NC(=O)Nc3ccc(N=C=S)cc3)n2)c1,< 4.00,,0.55,2.56,< 4.00,3.1,7.05,1.515
Dose-dependent effect,,,,0.52,,COc1cccc(-n2nnc(-c3ccccc3NC(=O)c3ccc(N)cc3)n2)c1,< 4.00,,,1.39,< 4.00,2.28,2.55,
,,,,,,COc1cccc(-n2nnc(-c3ccccc3NC(=O)Nc3ccc(NC(C)=O)cc3)n2)c1,< 4.00,0.454,,1.51,< 4.00,2.11,2.92,
,,,,,,CCCc1ccc(C(=O)Nc2ccccc2-c2nnn(-c3cccc(OC)c3)n2)cc1,4.57,0.207,,0.61,4.39,0.96,1.65,
,,,,,,COc1cccc(-n2nnc(-c3ccccc3NC(=O)c3ccc(N=C=S)cc3)n2)c1,4.35,,,4.43,4.23,4.88,5.68,1.221
,,,,,,CCCc1ccc(NC(=O)c2ccccc2NC(=O)c2cccc([N+](=O)[O-])c2)cc1,< 4.00,0.727,0.512,2.38,< 4.00,3.38,3.65,0.785
,,,,,,CCCc1ccc(NC(=O)c2ccccc2NC(=O)c2ccc(OC)cc2)cc1,< 4.00,2.012,,7.97,< 4.00,10,13.1,2.526
,,,,,6.03,CCCc1ccc(NC(=O)c2ccccc2NC(=O)c2ccc([N+](=O)[O-])cc2)cc1,< 4.00,,,2.76,< 4.00,3.64,3.87,
